The Biogen ADME set (Fang et al. 2023)
In brackets after ≈: the same amount, converted by molar mass.

Details: for aqueous solubility: pH 6.8

Compound	intrinsic clearance, human liver microsomes	intrinsic clearance, rat liver microsomes	MDR1-MDCK efflux ratio	aqueous solubility	fraction unbound, human plasma	fraction unbound, rat plasma
CC(C)(C)OC(=O)N1CCCN1C(=O)c1cc2cc(Cl)ccc2[nH]1	47.2 mL/min/kg	687 mL/min/kg	–	–	–	–
Cc1ccnc2[nH]c(CSCc3ccccc3)nc12	84.4 mL/min/kg	647 mL/min/kg	–	–	–	–
CN(C)C1CN(c2nc(-c3cnccn3)nc3sc4c(c23)CCCC4)C1	92.5 mL/min/kg	2720 mL/min/kg	1.17	37 µg/mL (≈ 101 µM)	–	–
Cc1ccc2c(CC(=O)N(C)CC(N)=O)coc2c1C	–	–	–	34.9 µg/mL (≈ 127 µM)	–	–
COc1cc(CNc2nnn[nH]2)cc(Br)c1OCc1ccc(Cl)cc1	10.5 mL/min/kg	74.5 mL/min/kg	4.03	1.88 µg/mL (≈ 4.43 µM)	–	–
Cn1ncc2c(NOCc3ccccc3)ncnc21	15.2 mL/min/kg	49.6 mL/min/kg	–	–	–	–
Cc1cc(C)n(C(=O)CCCC(=O)n2nc(C)cc2C)n1	609 mL/min/kg	2340 mL/min/kg	–	–	–	–
COc1ccc(N2N=C(C)/C(=C(\C)Nc3ccc(S(N)(=O)=O)cc3)C2=O)cc1	8.92 mL/min/kg	39.3 mL/min/kg	41.1	20.9 µg/mL (≈ 52.1 µM)	–	–
CSC1(CNc2cncc(Cl)n2)CCOCC1	10.2 mL/min/kg	528 mL/min/kg	–	–	–	–
CCCNC(=O)CSc1nc2cc(C)ccc2[nH]1	107 mL/min/kg	1190 mL/min/kg	2.1	–	–	–
COc1cc(N2CCN(C)CC2)ccc1Nc1ncc2c(n1)N(C)c1ccccc1C(=O)N2	14.2 mL/min/kg	131 mL/min/kg	45	61.7 µg/mL (≈ 138 µM)	–	–
CC(=O)NCC1CCN(C(=O)c2cncn2-c2ccc(F)cc2)CC1	≤ 4.74 mL/min/kg	29.3 mL/min/kg	59.5	46.3 µg/mL (≈ 134 µM)	–	–
Oc1ccc(CN2CCN(c3cccc(Cl)c3)CC2)cc1	33.6 mL/min/kg	90 mL/min/kg	0.451	2.2 µg/mL (≈ 7.27 µM)	–	–
Cc1ccc2c(c1)cc(CNCCc1ccccc1)c1nnnn12	417 mL/min/kg	1770 mL/min/kg	0.45	24.9 µg/mL (≈ 78.5 µM)	–	–
Cc1ccc(C(=O)N(C)C)cc1NS(C)(=O)=O	≤ 4.74 mL/min/kg	≤ 10.7 mL/min/kg	8.3	50.3 µg/mL (≈ 196 µM)	–	–
Cc1nc2ccccc2c(N)c1C(=O)/C=C/c1ccccc1	50 mL/min/kg	922 mL/min/kg	0.244	41.4 µg/mL (≈ 144 µM)	–	–
Cn1ccc(NC(=O)c2cc(-c3ccncc3)nc3ccccc23)n1	21.4 mL/min/kg	65.7 mL/min/kg	–	31.5 µg/mL (≈ 95.6 µM)	–	–
CC(C)c1nc2c(n1C)CCN(c1ncnc3ccccc13)C2	34.9 mL/min/kg	402 mL/min/kg	4.31	53.5 µg/mL (≈ 174 µM)	–	–
Cc1ccsc1C(=O)NCc1ccc2c(c1)OCCCO2	53.1 mL/min/kg	952 mL/min/kg	0.582	56.9 µg/mL (≈ 187 µM)	–	–
O=C(c1cccc(N2CCNC2=O)c1)N1CCc2ccccc2C1	12.8 mL/min/kg	322 mL/min/kg	5.72	42.3 µg/mL (≈ 132 µM)	–	–
O=C1CCC(=O)N1CCSc1ncc(-c2ccc(F)cc2)[nH]1	35.6 mL/min/kg	717 mL/min/kg	2.4	–	–	–

Compound	intrinsic clearance, human liver microsomes	intrinsic clearance, rat liver microsomes	MDR1-MDCK efflux ratio	aqueous solubility	fraction unbound, human plasma	fraction unbound, rat plasma
COc1cc2c(cc1OC)CN(C(=O)C1CCCN(C(C)=O)C1)CC2 (stereo not given)	≤ 4.74 mL/min/kg	19.9 mL/min/kg	57.1	55 µg/mL (≈ 159 µM)	–	–
Cc1cccnc1NC(=O)c1csc(-c2ccccc2)n1	54 mL/min/kg	462 mL/min/kg	–	43.2 µg/mL (≈ 146 µM)	–	–
Cc1cc(C)c2c(N)c(C(=O)NCc3ccc(Cl)cc3)sc2n1	162 mL/min/kg	1540 mL/min/kg	–	–	0.00426	0.00652
CCc1csc(NC(=O)c2ccc3c(c2)nc(C)n3C)n1	33.9 mL/min/kg	108 mL/min/kg	–	39.8 µg/mL (≈ 132 µM)	–	–
O=c1c2cccnc2ncn1[C@H]1CCN(Cc2ccccc2)C1	≤ 4.74 mL/min/kg	162 mL/min/kg	0.776	–	–	–
Nc1cncc(-c2ccc(CN3CCCCC3)cc2)c1	40.7 mL/min/kg	56.3 mL/min/kg	0.743	26 µg/mL (≈ 97.1 µM)	–	–
O=C1CC(N2CCCN(c3ccc(C(F)(F)F)cn3)CC2)C(=O)N1c1ccccc1 (stereo not given)	270 mL/min/kg	1280 mL/min/kg	0.761	–	–	–
CN(C)C(=O)COC(=O)Cc1ccc(OC(=O)c2ccc(NC(=N)N)cc2)cc1	102 mL/min/kg	936 mL/min/kg	0.707	77.6 µg/mL (≈ 195 µM)	–	–
Cc1nnc(NC(=O)c2ccccc2-c2ccc(C(F)(F)F)cc2)s1	12.1 mL/min/kg	28.3 mL/min/kg	1.45	1.35 µg/mL (≈ 3.72 µM)	–	–
COc1cc(C)nc(N2CCN(c3ccc4ccccc4n3)CC2)n1	36.2 mL/min/kg	643 mL/min/kg	–	–	–	–
Clc1snnc1CN1CCCN(c2nc3ccccc3[nH]2)CC1	105 mL/min/kg	1440 mL/min/kg	13.1	28.2 µg/mL (≈ 80.7 µM)	–	–
CC(C)CC(=O)Nc1ccc(Cl)c(C#N)c1	–	–	–	24.1 µg/mL (≈ 102 µM)	–	–
CCC(C)(C)NC(=O)C1(Cc2ccc(-c3cc(F)ccc3OC)cc2)CCOCC1	700 mL/min/kg	1020 mL/min/kg	1.62	12 µg/mL (≈ 28.9 µM)	–	–
Cc1nnc(N2CCC(CNc3ccc(C#N)cn3)C2)c(C#N)c1C (stereo not given)	–	–	–	8.15 µg/mL (≈ 24.4 µM)	–	–
NC(=O)CN1CCC(Oc2cccc(F)c2)CC1	≤ 4.74 mL/min/kg	71.6 mL/min/kg	0.543	60.8 µg/mL (≈ 241 µM)	–	–
CNC(=O)c1cnc(/C=C/c2csc(-c3cccs3)n2)s1	34.4 mL/min/kg	217 mL/min/kg	0.521	8.88 µg/mL (≈ 26.6 µM)	–	–
COc1ccc(CN2CCN(c3cc(C)nc(N)n3)CC2)cc1OC	≤ 4.74 mL/min/kg	≤ 10.7 mL/min/kg	5.7	53.6 µg/mL (≈ 156 µM)	–	–
COc1cccc(-c2nc(-c3cccnc3)n[nH]2)c1	≤ 4.74 mL/min/kg	46.5 mL/min/kg	0.698	22.7 µg/mL (≈ 89.8 µM)	–	–
CS(=O)(=O)NCCN1CCc2c(Cl)cc(Cl)cc2C1	14.3 mL/min/kg	400 mL/min/kg	0.707	–	–	–
O=C(Nc1nccs1)C1CCN(C(=O)CN2CCc3ccccc32)CC1	33.2 mL/min/kg	394 mL/min/kg	24.4	51.4 µg/mL (≈ 139 µM)	–	–
